Measured values taken from patent US8466163B2 (Bionomics Limited, priority 2006, dated 2013).

Assays:
tubulin = experiment: Tubulin polymerisation inhibitor (TPI) assay; format: biochemical; conditions: concentration required to inhibit the extent of tubulin polymerisation by 50%
[1] = tested on: Activated human umbilical vein endothelial cells (HUVECs); experiment: Inhibition of proliferation of activated HUVEC cells; format: cell-based; conditions: concentration required to inhibit proliferation by 50%, value falls within the range of concentrations given or >1000 nM

IC50 (tubulin) [µM]	Compound	IC50 ([1]; Homo sapiens, HUVEC) [µM]	IC50 [1] [µM]
> 40	COc1ccc(-c2oc3c(cnc(=O)n3C)c2C(=O)c2cc(OC)c(OC)c(OC)c2)cc1 [Example 15]		
	COc1ccc(-c2oc3[nH]c(=O)ncc3c2-c2cc(OC)c(OC)c(OC)c2)cn1 [Example 5, 6-(6-methoxypyridin-3-yl)-5-(3,4,5-trimethoxyphenyl)furo[2,3-d]pyrimidin-2(1H)-one]	0.1 to 1	
< 4	COc1ccc(-c2oc3nc(OC)cnc3c2C(=O)c2cc(OC)c(OC)c(OC)c2)cc1 [Example 25, 3-methoxy-6-(4-methoxyphenyl)-7-(3,4,5-trimethoxybenzoyl)furo[2,3-b]pyrazine]	0.01 to 0.1	
	COc1cc(-c2c(-c3ccco3)oc3[nH]c(=O)ncc23)cc(OC)c1OC [Example 3, 6-(2-furyl)-5-(3,4,5-trimethoxyphenyl)furo[2,3-d]pyrimidin-2(11)-one]	> 1	
2	COc1ccc(-c2oc3[nH]c(=O)ncc3c2-c2cc(OC)c(OC)c(OC)c2)cc1 [Example 1]	0.01 to 0.1	
	COc1ccc(-c2oc3[nH]c(=O)ncc3c2-c2cc(OC)c(OC)c(OC)c2)cc1O [Example 7, 6-(3-Hydroxy-4-methoxy-phenyl)-5-(3,4,5-trimethoxy-phenyl)-1H-furo[2,3-d]pyrimidinone]	0.01 to 0.1	
< 4	COc1ccc(-c2oc3cc(OC)ncc3c2C(=O)c2cc(OC)c(OC)c(OC)c2)cc1 [Example 24, 6-methoxy-2-(4-methoxyphenyl)-3-(3,4,5-trimethoxybenzoyl)furo[3,2-c]pyridine]	0.1 to 1	
> 40	COc1ccc(-c2oc3nc(OC)ccc3c2-c2cc(OC)c(OC)c(OC)c2)cc1 [Example 21, 6-methoxy-2-(4-methoxyphenyl)-3-(3,4,5-trimethoxyphenyl)furo[2,3-b]pyridine]		
	COc1ccc(-c2oc3nc(OC)ncc3c2C(=O)c2cc(OC)c(OC)c(OC)c2)cc1 [Example 27]	0.1 to 1	
> 40	COc1ccc(-c2oc3[nH]c(=O)ncc3c2C(=O)c2cc(OC)c(OC)c(OC)c2)cc1 [Example 13]		
	COc1cc(-c2c(-c3ccc4c(ccn4C)c3)oc3[nH]c(=O)ncc23)cc(OC)c1OC [Example 4, 6-(1-Methyl-1H-indol-5-yl)-5-(3,4,5-trimethoxy-phenyl)-1H-furo[2,3-d]pyrimidin-2-one]	0.001 to 0.01	
> 40	COc1ccc(-c2sc3nc(SC)ncc3c2C(=O)c2cc(OC)c(OC)c(OC)c2)cc1 [Example 18, 2-Thiomethoxy-6-(4-methoxyphenyl)-5-(3,4,5-trimethoxybenzoyl)-thiopheno [2,3-d]pyrimidine]		
	COc1ccc(-c2oc3[nH]c(=O)ncc3c2-c2cc(OC)c(OC)c(OC)c2)c(O)c1O [Example 8, 6-(2,3-Dihydroxy-4-methoxy-phenyl)-5-(3,4,5-trimethoxy-phenyl)-1H-furo[2,3-d]pyrimidin-2-one]	> 1	
10 to 40	COc1ccc(-c2oc3nc(Cl)ncc3c2-c2cc(OC)c(OC)c(OC)c2)cc1 [Example 16, 2-Chloro-6-(4-methoxyphenyl)-5-(3,4,5-trimethoxy-phenyl)-furo[2,3-d]pyrimidine]		
	6-(3-amino-4-methoxyphenyl)-5-(3-hydroxy-4,5-dimethoxyphenyl)furo[2,3-d]pyrimidin-2(1H)-one hydrochloride [Example 10]		> 1
< 4	COc1ccc(-c2oc3cc(OC)cnc3c2C(=O)c2cc(OC)c(OC)c(OC)c2)cc1 [Example 22, 6-methoxy-2-(4-methoxyphenyl)-3-(3,4,5-trimethoxybenzoyl)furo [3,2-b]pyridine]	0.1 to 1	
4 to 10	COc1ccc(-c2c(-c3cc(OC)c(OC)c(OC)c3)oc3[nH]c(=O)ncc23)cc1 [Example 2, 6-(2-(3,4,5-trimethoxyphenyl))-5-(4-methoxyphenyl)furo[2,3-d]pyrimidin-2(1H)-one]	0.1 to 1	
	COc1ccc(-c2oc3c(Br)c(OC)cnc3c2C(=O)c2cc(OC)c(OC)c(OC)c2)cc1 [Example 28, 7-Bromo-6-methoxy-2-(4-methoxyphenyl)-3-(3,4,5-trimethoxybenzoyl)-furo[3,2-b]pyridine]	0.1 to 1	
~2	COc1ccc(-c2oc3nc(OC)ccc3c2C(=O)c2cc(OC)c(OC)c(OC)c2)cc1 [Example 20, 6-methoxy-2-(4-methoxyphenyl)-3-(3,4,5-trimethoxybenzoyl)furo[2,3-b]pyridine]	0.1 to 1	
	COc1cc(C(=O)c2c(-c3cnn(C)c3)oc3c(=O)c(OC)c[nH]c23)cc(OC)c1OC [Example 30, 6-Methoxy-2-(1-methyl-1H-pyrazol-4-yl)-3-(3,4,5-trimethoxybenzoyl)-4H-furo[3,2-b]pyridin-7-one]	> 1	
	COc1ccc(-c2oc3[nH]c(=O)ccc3c2-c2cc(OC)c(OC)c(OC)c2)cc1 [Example 26, 2-(4-Methoxyphenyl)-3-(3,4,5-trimethoxyphenyl)furo[2,3-b]pyridin-6-one]	0.1 to 1	

Compound	IC50 (tubulin) [µM]	IC50 ([1]; Homo sapiens, HUVEC) [µM]	IC50 [1] [µM]
COc1ccc(-c2sc3nc(OC)ncc3c2C(=O)c2cc(OC)c(OC)c(OC)c2)cc1 [Example 19, 2-Methoxy-6-(4-methoxyphenyl)-5-(3,4,5-trimethoxybenzoyl)-thiopheno[2,3-d]pyrimidine]	> 40	> 1	
COc1ccc(-c2oc3cc(OC)cnc3c2-c2cc(OC)c(OC)c(OC)c2)cc1 [Example 23, 6-methoxy-2-(4-methoxyphenyl)-3-(3,4,5-trimethoxyphenyl)furo[3,2-b]pyridine]	~10	> 1	
COc1ccc(-c2oc3nc(OC)ncc3c2-c2cc(OC)c(OC)c(OC)c2)cc1 [Example 17, 2-Methoxy-6-(4-methoxyphenyl)-5-(3,4,5-trimethoxyphenyl)-furo[2,3-d]pyrimidine]	> 40		
